Measurements taken from US11685714B2, “Prodrugs of cytotoxic active agents having enzymatically cleavable groups” (BAYER PHARMA AKTIENGESELLSCHAFT, priority 2016, dated 2023).

Key:
[1] = Assay for determination of stability in rat liver lysosomes; type: in vitro ADME; details: over 24 h, 37° C.
Procedure: To determine the lysosomal stability of compounds A and B, lysosomal enzymes were isolated from rat liver cells. Compounds A and B were each added to this lysosomal extract in order to examine stability under lysosomal conditions. The proteolytic enzyme legumain is expressed only in a very small amount, if any, in rat liver lysosomes (Chen, J-M. et al 1997). To monitor the enzymatic activity of the lysosomal enzymes, a cathepsin-specific substrate was added.
First of all, a fresh rat liver was removed, weighed and immediately placed on ice in homogenization medium (0.25 M sucrose, 1 mM EDTA, 10 mM HEPES, pH7). The liver was comminuted and a change of medium was undertaken. The rat livers were homogenized with 4 times the amount of the rat liver weight at 750 rpm in a Potter (B. Braun). The homogenate was centrifuged at 1000 g for 10 min and the supernatant was filtered. In the next step, with the aid of an ultracentrifuge, the “light mitochondrial fraction” (LMF) was centrifuged out of the supernatant at 26 500 g over 20 min. […]
The sucrose was added from a 2.3 M stock solution of the particular percentage. […] To monitor the lysis, the protein content of the lysed lysosomal fraction was monitored with the aid of a BCA assays (Pierce BCA protein assay kit). […] For the RP-HPLC LCMS analysis, the samples were diluted with 300 μl of 10 mM ammonium acetate buffer (pH 6.8) and analysed.

[2] = Assay for determination of stability in rat plasma; type: in vitro ADME; details: 1 μg/ml, 37° C., 24 h
Procedure: To examine the stability of compounds A and B, 1 ml of rat plasma in a 1.5 ml Eppendorf tube in each case was equilibrated to 37° C. on an Eppendorf shaker. A stock solution (9 acetonitrile/1 DMSO) having a concentration of 100 μg/ml for compound A and compound B was prepared. 10 μl in each case of the stock solution were pipetted into 1 ml of equilibrated rat plasma, so as to give a concentration of 1 μg/ml.
The samples were kept at 450 rpm and 37° C. for 24 h. At each of the sampling times of 0, 0.25 h, 0.5 h, 1 h, 2 h, 4 h, 6 h and 24 h, 50 μl were taken and pipetted into 150 μl of methanol. Internal standard was included in the initial charge of methanol at a concentration of 0.05 μg/ml. After brief vortexing, 300 μl of 10 mM ammonium acetate buffer (pH 6.8) were added and centrifuged at 1881 g for 10 min. The samples were then analysed by means of RP-HPLC analysis and by LC-MS analysis.

[3] = molecular target: T1, motor domain of the human kinesin spindle protein KSP/Eg5 (Homo sapiens, UniProt P52732); assay: Inhibition of the kinesin spindle protein KSP/Eg5 (ATPase activity, malachite green); type: biochemical; details: 10 nM KSP/Eg5, microtubuli, 500 μM ATP, 2 h at RT
T1 construct: The motor domain of the human kinesin spindle protein KSP/Eg5; purchased tebu-bio/Cytoskeleton Inc 027EG01-XL
T1 sequence (P52732 18-359 limits assumed): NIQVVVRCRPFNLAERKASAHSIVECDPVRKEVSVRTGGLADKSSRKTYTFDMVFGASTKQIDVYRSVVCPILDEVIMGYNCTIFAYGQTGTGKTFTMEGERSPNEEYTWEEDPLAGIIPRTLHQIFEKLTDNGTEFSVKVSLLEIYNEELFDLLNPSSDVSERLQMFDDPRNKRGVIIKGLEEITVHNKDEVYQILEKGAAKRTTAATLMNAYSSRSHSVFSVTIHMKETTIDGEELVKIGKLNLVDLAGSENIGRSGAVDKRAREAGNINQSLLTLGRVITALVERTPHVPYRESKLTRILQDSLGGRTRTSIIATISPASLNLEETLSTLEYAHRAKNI
Procedure: The motor domain of the human kinesin spindle protein KSP/Eg5 (tebu-bio/Cytoskeleton Inc, No. 027EG01-XL) was incubated in a concentration of 10 nM with microtubuli (bovine or porcine, tebu-bio/Cytoskeleton Inc) stabilized with 50 μg/ml taxol (Sigma No. T7191-5MG) for 5 min at RT in 15 mM PIPES, pH 6.8 (5 mM MgCl2 and 10 mM DTT, Sigma). […] Incubation was at RT for 2 h. ATPase activity was detected by detecting the inorganic phosphate formed using malachite green (Biomol). […] The positive controls used were monastrol (Sigma, M8515-1 mg) and ispinesib (AdooQ Bioscience A10486). The individual data of the dose-activity curve are eight-fold determinations. The IC50 values are means of two independent experiments.

## CNC(=O)[C@H](CCN(C(=O)CO)[C@@H](c1cc(-c2cc(F)ccc2F)cn1Cc1ccccc1)C(C)(C)C)NC(=O)[C@H](CC(N)=O)NC(=O)[C@@H](C)NC(=O)[C@H](C)NC(=O)Cc1ccncc1 [Example R3r-LDL, N-(Pyridin-4-ylacetyl)-L-alanyl-D-alanyl-N^1-[(2S)-4-[{(1R)-1-[1-benzyl-4-(2,5-difluorophenyl)-1H-pyrrol-2-yl]-2,2-dimethylpropyl}(glycoloyl)amino]-1-(methylamino)-1-oxobutan-2-yl]-L-aspartamide]
[1]
  stability in rat liver lysosomal extract: stable
[2]
  stability in rat plasma: stable over 24 h
[3]
  IC50: 264 nM
